Results from patent US11401278B2, “Macrocyclic indole derivatives” (The Broad Institute, Inc., priority 2017, dated 2022).
“And” between values parts separate entries of the source, which are not always exact repeats. Identical values can stand only once. Counter-ions that a name gives are not always drawn. Like-named read-outs stand apart in the source and are kept apart here.

Legend:
SUDHL5 [1] = assay: Induction of caspase-3/7 activity (Assay 4), SUDHL5; assay type: cell-based; settings: caspase-3/7 induction, median
Outline: (§1)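 Caspase-3/7 activity measured by Caspase-Glo 3/7 luminescence in DLBCL cells after 3 h compound treatment at 37 °C. Medium-only background subtracted. EC50 fitted with C0 fixed at 1 and top set to the reference compound's plateau/max induction.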

AMO-1 = assay: Antiproliferation assay (Assay 7), AMO-1; assay type: cell-based; settings: CellTiter-Glo, several values per example
Outline: (§2)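 Cells were exposed to compound for 72 hours at 37° C. Viability was measured by CellTiter-Glo luminescence. A day 0 plate read at the start served as the time-zero reference.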

SUDHL5 [2] = assay: Induction of cytotoxicity (Assay 6), SUDHL5; settings: read-out: Cytotox SUDHL5 [M] (median) IC50, CellTiter-Glo, 5 hours, SUDHL5
SUDHL10 [3] = assay: Induction of cytotoxicity (Assay 6), SUDHL10; settings: read-out: Cytotox SUDHL10 [M] (median) IC50, CellTiter-Glo, 5 hours, SUDHL10
SUDHL10 [4] = assay: Induction of caspase-3/7 activity (Assay 4), SUDHL10; assay type: cell-based; settings: caspase-3/7 induction, median
Outline: as §1

BCL-2 = BCL-2 (Homo sapiens (Human), UniProt P10415); assay: Protein-protein interaction assay BCL-2/Bad BH3 peptide (BCL-2 assay, TR-FRET); assay type: binding; settings: His-BCL-2 / Bad BH3 peptide, median
Sequence of BCL-2 (P10415 other isoform, or with tags, fused parts or gaps): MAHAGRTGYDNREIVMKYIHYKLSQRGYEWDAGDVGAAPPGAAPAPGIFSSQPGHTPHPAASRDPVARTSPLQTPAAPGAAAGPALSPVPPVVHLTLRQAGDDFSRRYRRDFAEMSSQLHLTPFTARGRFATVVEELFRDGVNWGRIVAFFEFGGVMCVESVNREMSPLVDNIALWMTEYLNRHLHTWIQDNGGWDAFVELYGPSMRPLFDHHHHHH
Experimental: Assay 3 Protein-Protein Interaction Assay: BCL-2/Bad BH3 Peptide (BCL-2 Assay)
The dose-dependent inhibition by the compounds described in this invention of the interaction between BCL-2 and the BH3 domain of Bad (both human) was determined using a steady state binding competition assay with time-resolved fluorescence energy transfer (TR-FRET) readout. For that purpose BCL-2 (amino acids 1-211, C-terminal fused to a hexahistidine (6×His) tag (SEQ ID 5) and a synthetic Bad BH3-derived peptide of sequence Biotin-PEG2-PEG2-NLWAAQRYGRELRR-Nle-SDEFVDSFKK-amide (SEQ ID 4) served as protein receptor and tracer ligand respectively. The recombinant BCL-2 protein (expressed in E. coli) was purchased from BPS Bioscience (San Diego, Calif., USA). The Bad BH3-derived peptide can be obtained from e.g. Biosyntan (Berlin, Germany).
In the assay 11 different concentrations of each compound (0.1 nM, 0.33 nM, 1.1 nM, 3.8 nM, 13 nM, 44 nM, 0.15 μM, 0.51 μM, 1.7 μM, 5.9 μM and 20 μM) were typically measured as duplicates in the same microtiter plate. For that, 100-fold concentrated DMSO solutions were prepared by serial dilutions (1:3.4) of a 2 mM stock solution in a clear, 384-well microtiter plate (Greiner Bio-One, Frickenhausen, Germany). From there, 50 nl were transferred in a dark test plate (Greiner Bio-One, Frickenhausen, Germany). The assay was initiated by addition of 2 μl of a 2.5-fold concentrated His-BCL-2 solution (usually for a 1 nM end concentration in 5 μl reaction volume) in aqueous assay buffer [50 mM Tris/HCl pH 7, 100 mM sodium chloride (NaCl), 50 mM potassium fluoride (KF), 0.005% Tween-20, 2 mM DTT, 0.1% bovine gamma globulin (BGG)] to the compounds in the assay plate. This was followed by a 10-minute incubation step at 22° C. for pre-equilibration of the putative complex between His-BCL-2 and the compounds. After that, 3 μl of a 1.67-fold concentrated solution (in assay buffer) consisting of Bad BH3-derived peptide (1 nM end concentration) and TR-FRET detection reagents [1.67 nM anti-His-Eu cryptate and 1.67 nM streptavidin-XL665 (both from Cisbio Bioassays, Codolet, France)], were added.
The mixture was incubated in the dark for one hour at 22° C. and then overnight at 4° C. The formation of BCL-2/Bad complexes was determined by measuring the resonance energy transfer of the anti-His-Eu-cryptate antibody to the streptavidin-XL665 present in the reaction. For that purpose, the fluorescence emission at 620 nm and 665 nm after excitation at 330-350 nm was measured in a TR-FRET measuring instrument, for instance a Rubystar or a Pherastar (both from BMG Lab Technologies, Offenburg, Germany) or a Viewlux (Perkin-Elmer). The ratio of the emission at 665 nm and at 622 nm was used as indicator of the amount of BCL-2/Bad complexes present.
The resulting data (ratio) were normalized, taking 0% inhibition as the mean value of control measurements (usually 32 data points) where all reagents were included. In this case 50 nl DMSO were used instead of compounds. A 100% inhibition corresponded to the mean value of control measurements (usually 32 data points) where all reagents except BCL-2 were included. IC50 values were determined by regression analysis based on a 4 parameter equation (minimum, maximum, IC50, Hill; Y=Max+(Min−Max)/(1+(X/IC50)^HiII) using the Screener Software (Genedata).

SUDHL5 [5] = assay: Antiproliferation assay (Assay 7), SUDHL5; assay type: cell-based; settings: CellTiter-Glo, median, read-out: Antiproli SUDHL5 [M] (median) IC50
Outline: as §2

[6] = 72 hours, read-out: Antiproli AMO-1 [M] IC50
[7] = Homo sapiens, AMO1, 72 h, read-out: Antiproli AMO-1 [M] IC50

| EC50 (SUDHL5 [1]; 3 hours) | EC50 (SUDHL10 [4]; 3 hours) | IC50 (BCL-2) | IC50 (SUDHL5 [5]; 72 hours) | EC50 (SUDHL5 [1]; Homo sapiens, SU-DHL-5, 3 h) | EC50 (SUDHL10 [4]; Homo sapiens, SU-DHL10, 3 h) | IC50 (SUDHL5 [5]; Homo sapiens, SU-DHL-5, 72 h) | SMILES | IC50 (AMO-1; [6]) | IC50 (SUDHL5 [2]) | IC50 (SUDHL10 [3]) | IC50 (AMO-1; [7]) | IC50 (SUDHL5 [2]; Homo sapiens, SU-DHL-5, 5 h) | IC50 (SUDHL10 [3]; Homo sapiens, SU-DHL10, 5 h) | IC50 (AMO-1; 72 hours, listed as 09, read-out: Antiproli AMO-1 [M] IC50) |
| --- | --- | --- | --- | --- | --- | --- | --- | --- | --- | --- | --- | --- | --- | --- |
| 22 nM | 24 nM | 16000 nM | 3.9e-08 M |  |  |  | CCc1c2c(nn1C)C(CCC1CCOCC1)N(C)S(=O)(=O)CCCn1c(C(=O)O)c(CCCOc3cccc4cc(F)ccc34)c3ccc(Cl)c-2c31 (single isomer, unassigned; enantiomer 1) [Example 61, (+)-4-chloro-3-ethyl-7-{3-[(6-fluoronaphthalen-1-yl)oxy]propyl}-2,14-dimethyl-15-[2-(oxan-4-yl)ethyl]-13,13-dioxo-10,11,12,13,14,15-hexahydro-2H-13lambda^6-pyrazolo[3′,4′:4,5][1,2,8]thiadiazacycloundecino[6,7,8-hi]indole-8-carboxylic acid (Enantiomer 1)] | 2.5e-08 M and 2.8e-08 M | 2.8e-08 M | 4.9e-08 M |  |  |  |  |
| 27000 nM | 23000 nM | > 20000 nM | 1.7e-05 M |  |  |  | Cc1c2c(nn1C)C(CCN1CCOCC1)N(C)S(=O)(=O)CCCn1c(C(=O)O)c(CCCOc3cccc4ccccc34)c3cccc-2c31 (single isomer, unassigned; enantiomer 1) [Example 45, 2,3,14-trimethyl-15-[2-(morpholin-4-yl)ethyl]-7-{3-[(naphthalen-1-yl)oxy]propyl}-13,13-dioxo-10,11,12,13,14,15-hexahydro-2H-13lambda^6-pyrazolo[3′,4′:4,5][1,2,8]thiadiazacycloundecino[6,7,8-hi]indole-8-carboxylic acid N-ethylethanamine Salt (Enantiomer 1)] | 1.5e-05 M | 2e-05 M | 1.7e-05 M |  |  |  |  |
| 630 nM | 1600 nM | > 20000 nM | 9.2e-07 M |  |  |  | Cc1c2c(nn1C)CN(C)S(=O)(=O)CCCn1c(C(=O)O)c(CCCOc3cccc4ccccc34)c3ccc(Cl)c-2c31 (racemic) [Example 4, (rac)-4-Chloro-2,3,14-trimethyl-7-{3-[(naphthalen-1-yl)oxy]propyl}-13,13-dioxo-10,11,12,13,14,15-hexahydro-2H-13λ^6-pyrazolo[3′,4′:4,5][1,2,8]thiadiazacycloundecino-[6,7,8-hi]indole-8-carboxylic acid] |  | 8.1e-07 M | 1.2e-06 M | 2.5e-06 M |  |  |  |
|  |  | > 20000 nM |  | 1100 nM | 1700 nM | 9.2e-07 M | Cc1c2c(nn1C)C(CCN1CCOCC1)N(C)S(=O)(=O)CCCn1c(C(=O)O)c(CCCOc3cccc4ccccc34)c3cccc-2c31 (racemic) [Example 44, (rac)-2,3,14-trimethyl-15-[2-(rac)-(morpholin-4-yl)ethyl]-7-[3-(1-naphthyloxy)propyl]-11,12,14,15-tetrahydro-2H,10H-pyrazolo[3′,4′:4,5][1,2,8]thiadiazacycloundecino[6,7,8-hi]indole-8-carboxylic acid 13,13-dioxide (Mixture of Stereoisomers)] |  |  |  | 4.4e-06 M | 1.3e-06 M | 2.6e-06 M |  |
| 21000 nM | > 33000 nM | > 20000 nM | 1.4e-05 M |  |  |  | CCc1c2c(nn1C)CN(C)S(=O)(=O)CCCn1c(C(=O)O)c(CCCOc3cccc4cc(F)ccc34)c3ccc(F)c-2c31 (single isomer, unassigned; enantiomer 2) [Example 9, (−)-3-Ethyl-4-fluoro-7-{3-[(6-fluoronaphthalen-1-yl)oxy]propyl}-2,14-dimethyl-13,13-dioxo-10,11,12,13,14,15-hexahydro-2H-13λ^6-pyrazolo[3′,4′:4,5][1,2,8]thiadiazacycloundecino-[6,7,8-hi]indole-8-carboxylic acid (Enantiomer 2)] |  | 1.7e-05 M | > 3.3e-05 M |  |  |  | > 3.3e-05 M |
|  |  | > 20000 nM |  | 650 nM | 1400 nM | 5.3e-07 M | CCc1c2c(nn1C)CN(C)S(=O)(=O)CCCn1c(C(=O)O)c(CCCOc3cccc4c3CCC4)c3ccc(Cl)c-2c31 [Example 21, (rac)-13-Chloro-1-(3-((2,3-dihydro-1H-inden-4-yl)oxy)propyl)-12-ethyl-8,11-dimethyl-5,6,9,11-tetrahydro-4H,8H-pyrazolo[3′,4′:4,5][1]thia[2,8]diazacycloundecino[6,7,8-hi]indole-2-carboxylic acid 7,7-dioxide] |  |  |  | 2.6e-06 M | 1e-06 M | 1.8e-06 M |  |
|  |  | > 20000 nM |  | 2500 nM | 6400 nM | 1.8e-06 M | CCc1c2c(nn1C)CN(CCCN1CCOCC1)S(=O)(=O)CCCn1c(C(=O)O)c(CCCOc3cccc4ccccc34)c3cccc-2c31 (racemic) [Example 15, (rac)-12-Ethyl-11-methyl-8-(3-morpholinopropyl)-1-(3-(naphthalen-1-yloxy)propyl)-4,5,6,8,9,11-hexahydropyrazolo[3′,4′:4,5][1,2,8]thiadiazacycloundecino[6,7,8-hi]indole-2-carboxylic acid 7,7-dioxide 2,2,2-trifluoroacetic acid salt] |  |  |  | 1.2e-05 M | 2.9e-06 M | 6.3e-06 M |  |
|  |  | > 20000 nM |  | 580 nM | 1100 nM | 3.9e-07 M | CCc1c2c(nn1C)CN(C)S(=O)(=O)CCCn1c(C(=O)O)c(CCCOc3cccc4c3CCC4)c3ccc(F)c-2c31 (racemic) [Example 32, (rac)-1-(3-((2,3-Dihydro-1H-inden-4-yl)oxy)propyl)-12-ethyl-13-fluoro-8,11-dimethyl-5,6,9,11-tetrahydro-4H,8H-pyrazolo[3′,4′:4,5][1]thia[2,8]diazacycloundecino[6,7,8-hi]indole-2-carboxylic acid 7,7-dioxide] | 3.9e-06 M |  |  | 2.4e-06 M | 7.4e-07 M | 1.2e-06 M |  |
|  |  | > 20000 nM |  | 1600 nM | 5100 nM |  | CCc1c2c(nn1C)CN(C)S(=O)(=O)CCCn1c(C(=O)O)c(CCCOc3cc(C)c(Cl)c(C)c3)c3ccc(F)c-2c31 (racemic) [Example 33, (rac)-1-(3-(4-Chloro-3,5-dimethylphenoxy)propyl)-12-ethyl-13-fluoro-8,11-dimethyl-5,6,9,11-tetrahydro-4H,8H-pyrazolo[3′,4′:4,5][1]thia[2,8]diazacycloundecino[6,7,8-hi]indole-2-carboxylic acid 7,7-dioxide] |  |  |  | 4.8e-06 M | 2.6e-06 M | 6.4e-06 M |  |
